Source: patent US20150289512A1, “METHOD FOR PROMOTING PLANT GROWTH” (SUMITOMO CHEMICAL COMPANY, LIMITED, priority 2012, published 2015)

Key:
Format in all cases: in vivo
[1] = system: Rice (variety: Nipponbare); assay: Test Example 1: promotion of root growth by hydroponics of rice, 10 ppm; details: Oryza sativa, hydroponic solution containing the test compound at 10 ppm, average of 4 or 5 individuals, read-out: Relative value of length of seminal root (%-untreated control plot)
Experimental: (§1) Test for Evaluating Promotion of Root Growth by Hydroponics of Rice
(§2) Rice (variety: Nipponbare)
Rice seeds were soaked in a 1% aqueous sodium hypochlorite solution for 10 minutes, then soaked in a 70% ethanol solution for surface sterilization, and then washed with distilled water. The sterilized seeds were soaked in a hydroponic solution containing the test compound described above at 10 ppm and incubated in a dark place for 3 days at 28° C. to perform treatment for hastening germination.
(§3) Thereafter, 30 ml of hydroponic solution containing the test compound at 10 ppm was dispensed in a plastic tube (diameter of 20 mm×height of 113 mm) of which the side was covered with cardboard to block light. A float prepared using a styrene board and vinyl mesh was floated, and the rice seeds that had undergone the treatment for hastening germination were placed on the float on the surface of the hydroponic solution. The seeds were cultivated for 3 days at 26° C., an illuminance of 4,000 lux of the top surface of the tube, a humidity of 50%, and a day length of 16 hours.
The nursery plants of rice obtained after culturing were measured in terms of the length of seminal root by using WinRHIZO system (manufactured by Regent Instruments Inc). For each test plot, an average of the measured values of the seminal root of 4 or 5 individuals was determined.

Nicotiana benthamiana [2] = assay: Test Example 4: growth promotion under low-temperature stress by hydroponics of Nicotiana benthamiana, 10 ppm; details: 10 ppm in medium, low-temperature stress 7 days at 1.5±1.0° C., green leaf area 3 days later, equation (1)
Experimental: (§4) Test for Evaluating Growth Promotion Under Low-Temperature Stress by Hydroponics of Nicotiana benthamiana
A DMSO solution, which contained one of the compounds 1, 8, 9, 13, 18, 19, 22, 23, 29, 32, 33, 34, 39, 40, 41, 43, 44, 51, 53, 54, 55, 56, 58, 60, 62, 63, 64, 65, 67, 69, 71, 73, 74, 75, 77, 79, 82, 83 and 86 of the present invention at a concentration of 10,000 ppm, was prepared. The DMSO solution of the compound of the present invention was added at a volume ratio of 1/1,000 to the Murashige•Scoog medium of a ½-fold concentration (a medium containing 2.3 g of mixed salts for the Murashige•Scoog medium (manufactured by Wako Pure Chemical Industries, Ltd.), 200 mg of Myo-inositol (manufactured by Sigma-Aldrich Co. LLC.), 2 mg of nicotinic acid (manufactured by Wako Pure Chemical Industries, Ltd.), 2 mg of pyridoxine hydrochloride (manufactured by Wako Pure Chemical Industries, Ltd.), 20 mg of thiamine hydrochloride (manufactured by Wako Pure Chemical Industries, Ltd.), 20 g of sucrose (manufactured by Wako Pure Chemical Industries, Ltd.), and 1 g of MES (manufactured by DOJINDO LABORATORIES) per 1 L of water and having pH adjusted to 5.8), thereby preparing a medium containing the compound of the present invention at a concentration of 10 ppm.
(§5) Seeds of Nicotiana benthamiana were seeded in the 5 μL of the medium and cultured overnight at 22° C. Thereafter, 45 μL of the medium containing the compound of the present invention at a concentration of 10 ppm was added thereto, and the seeds are cultivated for 7 days at 22° C., an illuminance of 4,000 lux, and a day length of 16 hours, and the nursery plants raised from the Nicotiana benthamiana were treated with the compound. Moreover, instead of the above medium, a test plot, which was obtained by performing the same treatment by using a medium prepared by adding DMSO to the Murashige•Scoog medium of ½-fold concentration at a volume ratio of 1/1,000, was used as a control plot not treated with the compound.
(§6) The nursery plants of the Nicotiana benthamiana treated with the compound were subjected to low-temperature treatment by being cultivated for 7 days at 1.5±1.0° C., an illuminance of 2,000 lux, and a day length of 16 hours.
The nursery plants of the Nicotiana benthamiana having undergone the low-temperature stress treatment were cultivated for 3 days at 22° C., an illuminance of 4,000 lux, and a day length of 16 hours. Thereafter, the area of green leaf was quantified by Scanalyzer HTS (manufactured by LemnaTec GmbH). Moreover, the value of the control plot not treated with the compound that had not yet been subjected to the low-temperature stress treatment was measured in the same manner. A value of a relative leaf area was calculated based on the following equation (1), and if the value of a relative leaf area was 5 or greater, the compound was evaluated to have a mitigating effect. As a result of the evaluation, it was confirmed that when the plant was treated with one of the compounds 1, 8, 9, 13, 18, 19, 22, 23, 29, 32, 33, 34, 39, 40, 41, 43, 44, 51, 53, 54, 55, 56, 58, 60, 62, 63, 64, 65, 67, 69, 71, 73, 74, 75, 77, 79, 82, 83 and 86 of the present invention at 10 ppm, the value of a relative leaf area was 5 or greater, compared to the area of green leaf of the control plot not treated with compound. Accordingly, it was confirmed that the treatment using the compound of the present invention brings about a growth promotion effect.
(§7) Relative leaf area=100*(a green area of a plot treated with the compound of the present invention−a green area of a control plot not treated with the compound of the present invention)/(a green area of a control plot not treated with the compound of the present invention that has not yet been subjected to low-temperature stress treatment−a green area of a control plot not treated with the compound of the present invention) Equation (1): […]

Nicotiana benthamiana [3] = assay: Test Example 5: growth promotion under low-temperature stress by hydroponics of Nicotiana benthamiana, 1 ppm; details: 1 ppm in medium, low-temperature stress 7 days at 1.5±1.0° C., green leaf area 3 days later, equation (1)
Experimental: as §4
A DMSO solution, which contained one of the compounds 2, 4, 5, 6, 11, 12, 17, 20, 21, 28, 30, 34, 36, 37, 51, 52, 53, 55, 56, 58, 59, 60, 64, 65, 66, 68, 69, 70, 74, 77, 82, 83, 84, 86 and 87 of the present invention at a concentration of 1,000 ppm, was prepared. The DMSO solution of the compound of the present invention was added at a volume ratio of 1/1,000 to the Murashige•Scoog medium of a ½-fold concentration (a medium containing 2.3 g of mixed salts for the Murashige•Scoog medium (manufactured by Wako Pure Chemical Industries, Ltd.), 200 mg of Myo-inositol (manufactured by Sigma-Aldrich Co. LLC.), 2 mg of nicotinic acid (manufactured by Wako Pure Chemical Industries, Ltd.), 2 mg of pyridoxine hydrochloride (manufactured by Wako Pure Chemical Industries, Ltd.), 20 mg of thiamine hydrochloride (manufactured by Wako Pure Chemical Industries, Ltd.), 20 g of sucrose (manufactured by Wako Pure Chemical Industries, Ltd.), and 1 g of MES (manufactured by DOJINDO LABORATORIES) per 1 L of water and having pH adjusted to 5.8), thereby preparing a medium containing the compound of the present invention at a concentration of 1 ppm.
as §5, with “1” for “10”, “cultured” for “cultivated”
as §6
The nursery plants of the Nicotiana benthamiana having undergone the low-temperature stress treatment were cultured for 3 days at 22° C., an illuminance of 4,000 lux, and a day length of 16 hours. Thereafter, the area of green leaf was quantified by Scanalyzer HTS (manufactured by LemnaTec GmbH). Moreover, the value of the control plot not treated with the compound that had not yet been subjected to the low-temperature stress treatment was measured in the same manner. A value of a relative leaf area was calculated based on the following equation (1), and if the value of a relative leaf area was 5 or greater, the compound was evaluated to have a mitigating effect. As a result of the evaluation, it was confirmed that when the plant was treated with one of the compounds 2, 4, 5, 6, 11, 12, 17, 20, 21, 28, 30, 34, 36, 37, 51, 52, 53, 55, 56, 58, 59, 60, 64, 65, 66, 68, 69, 70, 74, 77, 82, 83, 84, 86 and 87 of the present invention at 1 ppm, the value of a relative leaf area was 5 or greater, compared to the area of green leaf of the control plot not treated with compound. Accordingly, it was confirmed that the treatment using the compound of the present invention brings about a growth promotion effect.
as §7

[4] = system: Rice (variety: Nipponbare); assay: Test Example 2: promotion of root growth by hydroponics of rice, 1 ppm; details: Oryza sativa, hydroponic solution containing the test compound at 1 ppm, average of 4 or 5 individuals, read-out: Relative value of length of seminal root (%-untreated control plot)
Experimental: as §1, §2
A DMSO solution, which contained one of the compounds 1, 3, 11, 12, 14, 15, 17, 21, 28, 30, 33, 34, 35, 36, 37, 38, 40, 41, 43, 44, 45, 46, 47, 49, 50, 51, 52, 53, 54, 55, 56, 61, 62, 63, 65, 67, 68, 69, 70, 73, 74, 75, 76, 77, 80, 82, 83, 85 and 86 of the present invention at a concentration of 10,000 ppm, was added to Hoagland hydroponic solution (Hoagland and Arnon, California Agricultural Experiment Station 1950 Circular 347 pp. 34) of ¼-fold concentration at a volume ratio of 1/10,000. In this manner, hydroponic solutions containing one of the compounds 1, 3, 11, 12, 14, 15, 17, 21, 28, 30, 33, 34, 35, 36, 37, 38, 40, 41, 43, 44, 45, 46, 47, 49, 50, 51, 52, 53, 54, 55, 56, 61, 62, 63, 65, 67, 68, 69, 70, 73, 74, 75, 76, 77, 80, 82, 83, 85 and 86 of the present invention at 1 ppm were prepared respectively. As an untreated control plot, a hydroponic solution obtained by adding DMSO to Hoagland hydroponic solution of ¼-fold concentration at a volume ratio of 1/10,000 was used. Rice seeds were soaked in a 1% aqueous sodium hypochlorite solution for 10 minutes, then soaked in a 70% ethanol solution for surface sterilization, and then washed with distilled water. The sterilized seeds were soaked in a hydroponic solution containing the test compound described above at 1 ppm and incubated in a dark place for 3 days at 28° C. to perform treatment for hastening germination.
as §3, with “1” for “10”
The nursery plants of rice obtained after cultivation were measured in terms of the length of seminal root by using WinRHIZO system (manufactured by Regent Instruments Inc). For each test plot, an average of the measured values of the seminal root of 4 or 5 individuals was determined.

Row | SMILES | change in vivo at 10 ppm [1] [%] | relative leaf area at 10 ppm (Nicotiana benthamiana [2]) [%] | relative leaf area (% of untreated control) at 1 ppm (Nicotiana benthamiana [3]) [%] | change in vivo at 1 ppm [4] [%]
1 | COC(=O)c1oc2ccccc2c1NS(C)(=O)=O [Compound 60] | > 5 | ≥ 5 | ≥ 5 | –
2 | COC(=O)c1oc2ccccc2c1N(C)C [Compound 58] | – | ≥ 5 | ≥ 5 | –
3 | COC(=O)c1nc2cc(C(F)(F)F)ccc2[nH]1 [Compound 21, methyl 5-(trifluoromethyl)benzimidazole-2-carboxylate] | – | – | ≥ 5 | > 5
